ChEMBL document CHEMBL1136160, “Design, synthesis and evaluation of novel azasugar-based MMP/ADAM inhibitors” (Bioorg Med Chem Lett, 2003)

Tests used:
Stromelysin-1 = Stromelysin-1 (Homo sapiens, UniProt P08254); experiment: Inhibition of recombinant human matrix metalloprotease-3
[1] = molecular target: Matrix metalloproteinase-9 (Homo sapiens, UniProt P14780); experiment: Inhibition of recombinant human matrix metalloprotease-9 (gelatinase B)
Interstitial collagenase [2] = molecular target: T1, Interstitial collagenase (Homo sapiens, UniProt P03956); experiment: Inhibition of Recombinant human matrix metalloprotease-1
T1 sequence (P03956 whole entry): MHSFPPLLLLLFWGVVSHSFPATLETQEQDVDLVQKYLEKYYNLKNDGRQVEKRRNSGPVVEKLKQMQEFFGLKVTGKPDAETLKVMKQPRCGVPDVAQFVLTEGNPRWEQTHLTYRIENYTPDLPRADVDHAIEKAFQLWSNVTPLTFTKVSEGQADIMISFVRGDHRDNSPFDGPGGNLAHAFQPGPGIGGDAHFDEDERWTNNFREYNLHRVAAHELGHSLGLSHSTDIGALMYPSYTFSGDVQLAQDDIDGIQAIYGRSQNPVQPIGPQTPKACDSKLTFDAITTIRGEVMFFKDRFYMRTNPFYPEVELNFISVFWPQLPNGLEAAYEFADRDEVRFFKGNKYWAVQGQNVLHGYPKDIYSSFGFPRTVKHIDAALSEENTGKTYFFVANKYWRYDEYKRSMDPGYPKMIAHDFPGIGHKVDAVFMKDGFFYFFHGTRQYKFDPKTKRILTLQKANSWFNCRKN

[3] = molecular target: Disintegrin and metalloproteinase domain-containing protein 17 (Homo sapiens, UniProt P78536); experiment: Inhibition of recombinant human tumor necrosis factor-alpha converting enzyme
Chain of Disintegrin and metalloproteinase domain-containing protein 17 (P78536 whole entry, the tested form may be a part): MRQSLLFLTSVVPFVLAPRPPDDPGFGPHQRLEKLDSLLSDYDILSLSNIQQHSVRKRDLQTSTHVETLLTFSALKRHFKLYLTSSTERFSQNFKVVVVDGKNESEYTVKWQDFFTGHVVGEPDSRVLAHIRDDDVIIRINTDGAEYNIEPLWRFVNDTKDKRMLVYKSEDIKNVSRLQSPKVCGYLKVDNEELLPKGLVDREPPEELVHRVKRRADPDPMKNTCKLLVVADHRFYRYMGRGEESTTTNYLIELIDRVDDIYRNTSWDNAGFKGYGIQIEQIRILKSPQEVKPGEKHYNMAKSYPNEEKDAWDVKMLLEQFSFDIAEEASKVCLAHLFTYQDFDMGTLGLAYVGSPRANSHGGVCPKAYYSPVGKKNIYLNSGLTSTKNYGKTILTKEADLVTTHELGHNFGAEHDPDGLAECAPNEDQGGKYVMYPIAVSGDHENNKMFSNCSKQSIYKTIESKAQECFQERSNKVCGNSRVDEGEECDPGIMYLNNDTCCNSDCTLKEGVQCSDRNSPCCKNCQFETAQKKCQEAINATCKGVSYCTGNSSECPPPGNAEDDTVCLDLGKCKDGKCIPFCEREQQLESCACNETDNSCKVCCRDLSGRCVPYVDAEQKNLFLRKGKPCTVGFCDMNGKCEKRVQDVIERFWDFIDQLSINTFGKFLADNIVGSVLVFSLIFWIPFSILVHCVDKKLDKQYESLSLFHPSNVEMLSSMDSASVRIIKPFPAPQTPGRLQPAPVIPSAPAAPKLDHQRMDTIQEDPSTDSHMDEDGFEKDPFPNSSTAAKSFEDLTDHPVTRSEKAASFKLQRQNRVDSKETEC

Interstitial collagenase [4] = molecular target: T1, Interstitial collagenase; experiment: Inhibition of recombinant human matrix metalloprotease-1

Chain of Matrix metalloproteinase-9 (P14780 whole entry): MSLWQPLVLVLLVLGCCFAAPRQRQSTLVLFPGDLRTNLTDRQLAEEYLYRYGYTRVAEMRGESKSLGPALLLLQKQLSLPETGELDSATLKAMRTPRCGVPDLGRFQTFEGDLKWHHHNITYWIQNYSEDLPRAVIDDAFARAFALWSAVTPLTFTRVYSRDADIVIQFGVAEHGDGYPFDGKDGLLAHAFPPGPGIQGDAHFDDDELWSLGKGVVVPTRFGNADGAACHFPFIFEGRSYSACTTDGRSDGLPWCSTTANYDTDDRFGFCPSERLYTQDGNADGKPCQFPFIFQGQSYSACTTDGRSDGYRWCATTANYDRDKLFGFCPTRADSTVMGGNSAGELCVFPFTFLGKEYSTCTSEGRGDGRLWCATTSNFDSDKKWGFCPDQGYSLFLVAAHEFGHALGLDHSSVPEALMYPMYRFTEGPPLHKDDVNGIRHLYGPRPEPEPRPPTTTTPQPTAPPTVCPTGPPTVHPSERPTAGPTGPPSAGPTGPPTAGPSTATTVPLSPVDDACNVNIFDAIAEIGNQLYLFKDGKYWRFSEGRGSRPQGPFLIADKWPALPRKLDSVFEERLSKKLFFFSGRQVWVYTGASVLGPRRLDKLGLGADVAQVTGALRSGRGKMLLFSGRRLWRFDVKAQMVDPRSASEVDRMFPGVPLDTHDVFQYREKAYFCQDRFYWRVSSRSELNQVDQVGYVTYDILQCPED
Chain of Stromelysin-1 (P08254 whole entry): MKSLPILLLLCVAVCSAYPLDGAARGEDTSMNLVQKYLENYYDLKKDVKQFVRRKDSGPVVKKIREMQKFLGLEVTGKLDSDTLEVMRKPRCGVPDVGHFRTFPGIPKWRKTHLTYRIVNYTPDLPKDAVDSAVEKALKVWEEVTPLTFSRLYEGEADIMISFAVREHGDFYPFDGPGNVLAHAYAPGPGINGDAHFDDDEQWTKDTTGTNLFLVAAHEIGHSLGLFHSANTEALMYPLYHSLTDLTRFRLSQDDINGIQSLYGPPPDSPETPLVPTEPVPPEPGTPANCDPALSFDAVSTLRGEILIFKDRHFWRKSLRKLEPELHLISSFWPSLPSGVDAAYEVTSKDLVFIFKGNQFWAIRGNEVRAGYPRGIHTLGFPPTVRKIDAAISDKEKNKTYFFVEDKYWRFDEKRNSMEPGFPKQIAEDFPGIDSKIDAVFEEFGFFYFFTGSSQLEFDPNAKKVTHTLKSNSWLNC

| Ki (Stromelysin-1) | Ki [1] | Ki (Interstitial collagenase [2]) | Ki (Interstitial collagenase [4]) | Structure (SMILES) | Ki [3] |
| --- | --- | --- | --- | --- | --- |
| 50 nM | 47 nM | 162 nM | – | COc1ccc(S(=O)(=O)N2C[C@@H]3OC(C)(C)O[C@H]3[C@@H](OC(C)=O)[C@@H]2C(=O)NO)cc1 | 21 nM |
| 3.7 nM | 21 nM | 26 nM | – | COc1ccc(S(=O)(=O)N2C[C@@H]3OC(C)(C)O[C@H]3[C@@H](O)[C@@H]2C(=O)NO)cc1 | 40 nM |
| 44 nM | 310 nM | – | 554 nM | COc1ccc(S(=O)(=O)N2C[C@H](O)[C@H]3OC(C)(C)O[C@H]3[C@@H]2C(=O)NO)cc1 | 22 nM |
